Source: patent US20240043416A1, “SALT AND CRYSTAL FORM OF HA INHIBITOR COMPOUND” (SICHUAN HAISCO PHARMACEUTICAL CO., LTD., priority 2021, published 2024)
Counter-ions that a name gives are not always drawn. One block for each compound: values may come before it.

Assays:
[1] = Characterization of salt form of compound A (properties of various salts, Table 8); assay type: physicochemical; settings: determined by the height of the strongest peak in XRPD
in vivo = settings: male, SD, rat
Method: Test objective: by giving test compounds to SD rats via single-dose intravenous and intragastric administration and measuring the concentrations of the test compounds in plasma of rats, the pharmacokinetic characteristics and bioavailability of the test compounds in rats were evaluated.
Test animal: male SD rats, about 220 g, 6-8 weeks old, 6 rats/compound, purchased from Chengdu Ddossy Experimental Animals Co., Ltd.
Test method: on the day of the test, 6 SD rats were randomly grouped according to their body weight; the animals were fasted with water available for 12 to 14 h one day before the administration, and were fed 4 h after the administration; and the administration was performed according to Table 10.
Before and after the administration, 0.1 mL of blood samples were drawn from the orbits of the animals under isoflurane anaesthesia, and placed in an EDTAK2 centrifuge tube. Centrifugation was performed at 5000 rpm at 4° C. for 10 min, and plasma was collected.
Time points for sample collection in G1 and G2 groups comprise 0, 5 min, 15 min, 30 min, 1 h, 2 h, 4 h, 6 h, 8 h and 24 h.
Before analysis and detection, all samples were stored at −80° C.
30 μL of each of plasma samples, standard curve samples and quality control samples was taken, and 200 μL of acetonitrile solution containing an internal standard was added. The resulting mixture was homogeneously mixed by vortex and centrifuged at 4° C. at 12000 rpm for 10 min. 170 μL of the supernatant was taken and placed to a 96-well plate, and LC-MS/MS analysis was performed, wherein the sample size was 0.2 μL.
The main pharmacokinetic parameters were analysed by a non-compartmental model using WinNonlin 8.0 software.

Compound: O=S(=O)(O)c1ccc2ccccc2c1 [Example 2-naphthalenesulfonate, 2-naphthalenesulfonate]
Crystallinity [1]: High

Compound: C1=Cc2cccc(OC[C@H]3CNCCO3)c2C1.O=S(=O)(O)c1ccccc1 [Benzenesulfonate]
Crystallinity [1]: Relatively

Crystallinity [1]: High
Compound: Br [Hydrobromide]

bioavailability (in vivo): 26.1 ± 6.2% | AUC (in vivo; iv, 2 mg/kg): 2010 ± 396 ng·h/mL | Cmax (in vivo; iv, 2 mg/kg): 1460 ± 134 ng/mL | half-life (in vivo; iv, 2 mg/kg): 0.897 ± 0.013 h | AUC (in vivo; po, 10 mg/kg): 2610 ± 620 ng·h/mL | Cmax (in vivo; po, 10 mg/kg): 715 ± 127 ng/mL | Tmax (in vivo; po, 10 mg/kg): 1.67 ± 0.58 h | half-life (in vivo; po, 10 mg/kg): 1.04 ± 0.099 h
Compound: Cc1nnn([C@@H](c2ccccc2)C2CCN(C(=O)c3cc(-c4nc5cc(NC(=O)[C@@H]6C[C@@H]6F)ccc5o4)ccn3)CC2)n1 [Compound A, (1S,2S)-2-fluoro-N-(2-(2-(4-((R)-(5-methyl-2H-tetrazol-2-yl)(phenyl)methyl)piperidine-1-carbonyl)pyridin-4-yl)benzo[d]oxazol-5-yl)cyclopropane-1-carboxamide]
